The values that follow come from publication PMC11931052, “Efficacy of dispirotripiperazine PDSTP in a golden Syrian hamster model of SARS-CoV-2 infection” (Frontiers in Microbiology, 2025).

Bounds are passed on as bounds.

Series [1] concerns SARS-CoV-2 clinical isolate VR PV10734. Briefly: Plaque reduction assay, SARS-CoV-2 VR PV10734 in Vero E6 cells. It counts as cell-based. Particulars: Severe acute respiratory syndrome coronavirus 2, Vero C1008, mean ± SD, read-out: Antiviral activity IC50 against coronaviruses, SARS-CoV-2 clinical isolate VR PV10734, PR. The method, then:
(§1) Vero E6 cells were incubated in the presence of PDSTP and reference compounds (100.0, 20.0, 4.0, and 0.8 μM concentrations) for 1 h at 37°C in a 5% CO2 and then infected for 1 h with 250 μL of the corresponding virus (SARS-CoV-2 PV10734 or HCoV-229E) dilutions to obtain 50–100 PFU/well. The plates were then incubated for 1 h at 37°C in a 5% CO2 atmosphere. Following the removal of the unabsorbed virus, 400 μL of the medium (D-MEM with L-glutamine, 4,500 mg/L D-glucose, and 1% inactivated FBS) containing 0.75% methyl-cellulose (M0512, viscosity 4,000 cP, Sigma-Aldrich, United States) and the serial dilutions of the compounds were added and incubated for 4 (SARS-CoV-2) or 2 (HCoV-229E) days at 37°C in a 5% CO2 atmosphere. Subsequently, the cells were fixed and stained with a 0.2% crystal violet solution (V5265, Sigma-Aldrich, United States) and then the number of plaques was calculated. The degree of cell growth/viability and viral multiplication at each drug concentration tested was expressed as a percentage of the untreated control. Concentrations resulting in 50% inhibition (CC50 or EC50) were determined using linear regression analysis.

Series [2] is described as follows: Cytotoxicity (MTT test) in Vero E6 cell line. It counts as cell-based, African Green Monkey (Cercopithecus aethiops). Particulars: African green monkey, mean ± SD, three independent experiments. The method, then: (§2) The microtetrazolium test (MTT test) was used to study the cytotoxicity of the compounds. Vero cells were seeded in 96-well plates at an initial density of 3×10^5 cells/mL, in Gibco Dulbecco’s Modified Eagle Medium supplemented with L-glutamine and 25 mg/L kanamycin, and 10 % fetal bovine serum (FBS) (DMEM, Thermo Fisher Scientific, Waltham, MA USA). Cell cultures were then incubated at 37 °C in a 5 % CO2 atmosphere, in the absence or presence of serial dilutions of test compounds. The test medium used for the cytotoxic assay as well as for the antiviral assay contained 1 % of the appropriate serum. Cell viability was determined after 72 h at 37 °C by the MTT method as previously reported. The cell viability was expressed as a percentage of the control. The 50% cytotoxic concentration (CC50) of each compound was defined as the concentration of the compound that reduced the absorbance (OD570) of the treated cells to 50% when compared with that of untreated cells. CC50 mean values were calculated from at least three independent experiments.

Series [3] has as its system HCoV-229E. Briefly: Plaque reduction assay, HCoV-229E in Vero E6 cells. It is filed as cell-based. Particulars: Human coronavirus 229E, Vero C1008, Vero E6, mean ± SD, read-out: Antiviral activity IC50 against coronaviruses, HCoV-229E, PR. The method, then:
as §1

The nature of series [4]: Cytotoxicity (MTT test) in Vero-76 cells. It is filed as cell-based, African Green Monkey (Cercopithecus aethiops). Particulars: African green monkey. The procedure:
as §2

In series [5] the test system is SARS-COV-2 PV10734. Briefly: Time-of-addition and cell pre-treatment assay in Vero cells. It is filed as cell-based.
Series [6] has as its system SARS-CoV-2 clinical isolate 35245. Briefly: Microtetrazolium (MTT) test, SARS-CoV-2 35245. It is filed as cell-based. Particulars: Severe acute respiratory syndrome coronavirus 2, read-out: Antiviral activity IC50 against coronaviruses, SARS-CoV-2 clinical isolate 35245, MTT. The method, then:
The compound’s activity against OC43 and SARS-CoV-235245 was based on the inhibition of virus-induced cytopathogenicity in acutely infected Vero-76 cells (MOI 0.01). Briefly, Vero-76 cells were seeded in 96-well plates at a density of 3 × 10^4 cells/well and incubated in a growth medium in a 5% CO2 at 37°C overnight. Cell monolayers were then infected with 50 μL of the appropriate viral dilution in maintenance medium [D-MEM and MEM-Earl (Gibco, Thermo Fisher Scientific, MA United States) with L-glutamine (Gibco), 1 mM sodium pyruvate (Gibco), and 0.025 g/L kanamycin (Gibco), supplemented with 0.5% inactivated FBS (Harlan Sera-Lab, Loughborough, United Kingdom), respectively] to give an MOI of 0.01, without or with serial dilutions of test samples. After 6 (HCoV-OC43) and 4/5 (SARS-CoV-2) days of incubation at 37°C, the extent of cell viability was quantified using a tetrazolium-based colorimetric method, in which the reduction of 3-(4,5-dimethylthiazol-2-yl)-2,5-diphenyl-tetrazolium bromide (MTT) by mitochondrial dehydrogenases to a soluble colored formazan was measured using a spectrophotometer (Infinity 200, Tecan Austria GmbH, Austria) at 570 nm, as previously reported ([Sanna et al., 2020]).

For series [7] the test system is unchanged. Briefly: Plaque reduction assay, SARS-CoV-2 35245. It counts as cell-based. Particulars: Severe acute respiratory syndrome coronavirus 2, read-out: Antiviral activity IC50 against coronaviruses, SARS-CoV-2 clinical isolate 35245, PR.
Series [8] relates to HCoV-OC43. Briefly: MTT test, HCoV-OC43 in Vero-76 cells. It counts as cell-based. Particulars: Betacoronavirus 1, OC43, Vero 76, read-out: IC50 (HCoV-OC43).

As for `CCC(CC)COC(=O)[C@H](C)N[P@](=O)(OC[C@H]1O[C@@](C#N)(c2ccc3c(N)ncnn23)[C@H](O)[C@@H]1O)Oc1ccccc1` [RMD, Remdesivir], the IC50 turned out to be 1.6 ± 0.3 µM in series [1] and 6 ± 2 µM in series [3]. Further, the CC50 at 72 h in series [2] and in series [4] was more than 100 µM throughout. The “Antiviral activity after the SARS-CoV-2 entry process” value in series [5] is listed as “exerted its antiviral activity”. In addition, the “Antiviral activity, pre-treatment and early stages of infection” value in series [5] was “did not affect the early events of the viral life cycle”.

For heparin, the “Inhibitory effect at the later stages of infection” value in series [5] (addition at 4 and 6 hpi) is “barely noticeable”.

For `CCN(CCO)CCCC(C)Nc1ccnc2cc(Cl)ccc12` (centres unmarked) [HDQ, Hydroxychloroquine, reference compound], the IC50 in series [1] is 2.4 ± 0.7 µM; in series [3], 1.6 ± 0.5 µM; in series [6], 11 ± 2.9 µM; in series [7], 2.3 ± 0.7 µM; in series [8] it was 9.8 ± 1.7 µM. Moreover, the CC50 at 72 h in series [2] (Vero E6 cells) and in series [4] (Vero-76 cells) was 40 ± 5 µM in each case.
